The experiment has as its system CEM cells HIV-1 protection, formazan growth assay. Briefly: NCI AIDS Antiviral Assay. As to conditions: for IC50: measured here: growth of uninfected CEM cells. The essentials: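 Steps: treat uninfected and HIV-1-infected human CEM cells at five drug levels; quantify growth by soluble formazan; retest any compound reaching 50% protection; classify actives from the retest.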

The structures appear in SMILES notation. Activity calls are given as the source filed them.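 Rule for the calls: active = compounds giving half or more protection of infected cells from virus-caused growth loss, again on retest; inactive = the rest.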 *1 amine or outer side, *2 acyl side, *3 side chain or, on linkers, in order; H or OH if unused. Where a SMILES comes first, the peptide text is derived from it. Bridges are numbered along the chain shown (N, C = ends). [ ]: non-standard residue; d: D form. The star is where a group is joined. ξ: configuration not given here. Fmoc = O=C(OCC1c2ccccc2-c2ccccc21)*; X2 = O=C(C(CCCCNO[*:3])N[*:1])[*:2]; ξW = NC(Cc1c[nH]c2ccccc12)C(=O)O; ξP = O=C(O)C1CCCN1 Bounds are passed on as bounds.

By EC50 is commonly meant the concentration that produces a half-maximal response. By IC50 is commonly meant the concentration that gives 50% inhibition. High values mean weaker potency in that assay, low ones greater potency in that assay.

Take `O=Nc1[nH]c(O)c2ccccc12`: the EC50 is > 200 µM and the 50% inhibitory concentration (IC50) was > 200 µM.

Take `COC(=O)CC(c1ccccc1)C1(c2ccccc2)SCCS1` (configuration not stated): the EC50 was > 7.94 µM and the half-inhibitory concentration (IC50) is > 7.94 µM.

On to `CCOC(=O)NC(Nc1cc(Cl)ccc1OC)(C(F)(F)F)C(F)(F)F`, for which the EC50 was > 200 µM and the IC50 was determined as 102 µM.

On to `CC1CNc2cccc3[nH]c(=S)n(c23)C1` (configuration not stated), for which the EC50 is > 200 µM and the half-maximal inhibitory concentration (IC50) is > 200 µM.

As to `N#Cc1cc([N+](=O)[O-])ccc1NC(=O)C(F)(F)F`, the EC50 is > 100 µM and the IC50 came to 89.1 µM.

Regarding `CNC(=O)CN(CC(N)=O)C(=O)NC`, the EC50 was > 891 µM and the IC50 is > 891 µM.

Regarding `CCOc1ccc(NC(=O)CC2SC(=Nc3ccc(Cl)cc3)NC2=O)cc1` (configuration not stated), the EC50 was > 617 µM and the IC50 is > 617 µM.

`CC(C)C(=O)/C=C/c1ccc(Cl)cc1Cl`: the outcome was inactive.

Regarding `CC1(C)C2CCC1C(=O)C(C=O)C2` (configuration not stated), the EC50 was > 200 µM and the IC50 was > 200 µM.

On to `CCC(C)C(NC(=O)C(N)CCC(=O)O)C(=O)NC(CCCCN)C(=O)NCC(=O)NC(C(=O)NC(C(=O)NC(CC(N)=O)C(=O)NC(CC(C)C)C(=O)NCC(=O)NC(CCCCN)C(=O)O)C(C)O)C(C)O` (configuration not stated) (H-EIKGTTNLGK-OH; configuration not given here), for which the result was inactive.

As to `O=C1/C(=C/c2ccccc2)N=C2Sc3c(nc[nH]c3=O)N12`, the result was inactive.

For the molecule `NC(=O)CNC(=O)C1CCCN1C(=O)C1CCCCNOC(=O)CC[C@@H](NC(=O)OCC2c3ccccc3-c3ccccc32)C(=O)NC(Cc2c[nH]c3ccccc23)C(=O)N1` (some centres not stated) (Fmoc-[dE][ξW][X2][ξP]G-NH2; ester 1-3), the EC50 was > 100 µM and the 50% inhibitory concentration (IC50) was > 100 µM.

Regarding `CCc1cccc(C(C)C)c1NC(=O)C(=O)CC(=O)c1c(C)n([O-])c2ccccc2[n+]1=O`, the EC50 is > 3.31 µM and the 50% inhibitory concentration (IC50) is > 3.31 µM.

Consider `CO[C@H](C(=O)[C@@H](O)[C@@H](C)O)[C@@H]1Cc2cc3cc(OC4CC(OC5CC(O)C(O)C(C)O5)C(O)C(C)O4)c(C)c(O)c3c(O)c2C(=O)[C@H]1OC1CC(OC2CC(OC3CC(C)(O)C(O)C(C)O3)C(O)C(C)O2)C(O)C(C)O1` (some centres not stated), for which the EC50 is > 0.0302 µM and the IC50 is > 0.0302 µM.

Turning to `O=P(OCC1CCCO1)(OCC1CCCO1)OCC1CCCO1` (configuration not stated), the result was inactive.

Regarding `CN1CCN(CCSc2nnc(-c3cc4ccccc4s3)c3ccccc23)CC1`, the EC50 is > 162 µM and the IC50 was found to be 12.9 µM.

On to `CC(=O)Oc1ccc2cc(-c3ccccc3OC(C)=O)c(=O)oc2c1`, for which the EC50 is > 200 µM and the concentration for half-maximal inhibition (IC50) was found to be 74.1 µM.

Turning to `NC1=NN(c2ccccc2)C(=O)C1C(=O)CCC(=O)Nc1cccc(C(F)(F)F)c1` (configuration not stated), the EC50 was > 427 µM and the IC50 turned out to be 407 µM.

Turning to `O=Cc1ccc(-c2ccc(-c3ccc(C=O)s3)o2)s1`, the outcome was inactive.

On to `Cn1cc(NC(=O)Nc2cc(C(=O)Nc3cc(C(=O)Nc4cc(S(=O)(=O)O)c5cc(S(=O)(=O)O)cc(S(=O)(=O)O)c5c4)n(C)c3)n(C)c2)cc1C(=O)Nc1cc(C(=O)Nc2cc(S(=O)(=O)O)c3cc(S(=O)(=O)O)cc(S(=O)(=O)O)c3c2)n(C)c1`, for which the EC50 was 4.68 µM and the IC50 was found to be 224 µM.

Turning to `Cc1csc(NNC(=O)Nc2ccccc2)n1`, the EC50 was > 129 µM and the IC50 came to 43.7 µM.

Take `CCOC(=O)c1ccc(-n2[nH]c(=O)ccc2=O)cc1`: the EC50 is > 191 µM and the IC50 is > 191 µM.

For the molecule `Cc1ccc(/C=C(\NC(=O)c2ccccc2)c2nc3ccccc3[nH]2)cc1`, the EC50 is > 74.1 µM and the IC50 was > 74.1 µM.

Take `O=C(O)CCNC(=O)OCc1ccccc1`: the EC50 was > 200 µM and the IC50 was > 200 µM.

`O=C1NN(c2ccccc2)[C@@H]2CCCC[C@H]12`: the EC50 was > 437 µM and the half-inhibitory concentration (IC50) was > 437 µM.

For `CCCCc1ccc(Nc2nc(Cl)c3ccn(C4CC(Oc5ccc(C)cc5)C(COc5ccc(C)cc5)O4)c3n2)cc1` (configuration not stated), the EC50 is > 200 µM and the 50% inhibitory concentration (IC50) was > 200 µM.

Source of the values: PubChem BioAssay AID179 (DTP/NCI, 2004).
